For series [1] the following is noted: 298.15 K; 100 kPa; Liquid; Vibrating tube method.
The nature of series [2]: xn = mol fraction of the nth substance listed. The following applies: 298.15 K, 100 kPa, Liquid, Vibrating tube method.

Numbers after ± are expanded uncertainties.

One may read the mass density as mass per unit of volume. Consider `CCCCCCCCCCO` [decan-1-ol], for which the mass density in series [1] came to 826.1 ± 1 kg/m3.

As to `CCCCCCCCCCO` [decan-1-ol] + C1CCCCC1, the mass density in series [2] (x2 = 0) was 826.1 ± 1 kg/m3; in series [2] (x2 = 0.0819) it was 823.7 ± 1 kg/m3; in series [2] (x2 = 0.1596), 820.8 ± 1 kg/m3; in series [2] (x2 = 0.2401), 817.6 ± 1 kg/m3; in series [2] (x2 = 0.3482), 812.9 ± 1 kg/m3; in series [2] (x2 = 0.4395) it was 808.7 ± 1 kg/m3. For the same compound, the mass density is 802.6 ± 1 kg/m3 in series [2] (x2 = 0.5598); 797.6 ± 1 kg/m3 in series [2] (x2 = 0.6498); 792.3 ± 1 kg/m3 in series [2] (x2 = 0.7404); 785.2 ± 1 kg/m3 in series [2] (x2 = 0.849); 778.6 ± 1 kg/m3 in series [2] (x2 = 0.9394).

With `CCCCCCCCO` [octan-1-ol], in series [1], the mass density is 821.4 ± 1 kg/m3.

Take `C1CCCCC1` [cyclohexane]: in series [1], the mass density came out at 773.6 ± 1 kg/m3.

As to `C1CCCCC1` [cyclohexane] + CCCCCO, in series [2] (x1 = 1), the mass density is listed as 773.6 ± 1 kg/m3.

As for `CCCCCCCO` [heptan-1-ol], in series [1], the mass density is 818.7 ± 1 kg/m3.

Consider `CCCCCO` [pentan-1-ol], for which, in series [1], the mass density is reported as 810.8 ± 1 kg/m3.

For `CCCCCCCCCO` [nonan-1-ol] + C1CCCCC1, the mass density in series [2] (x2 = 0) stood at 824 ± 1 kg/m3; in series [2] (x2 = 0.0817) it was 821.1 ± 1 kg/m3; in series [2] (x2 = 0.1605), 818 ± 1 kg/m3; in series [2] (x2 = 0.2409) it was 814.7 ± 1 kg/m3; in series [2] (x2 = 0.3496), 810 ± 1 kg/m3; in series [2] (x2 = 0.4399) it was 805.8 ± 1 kg/m3. Besides, the mass density in series [2] (x2 = 0.5606) came out at 799.8 ± 1 kg/m3; in series [2] (x2 = 0.6497) it was 795.1 ± 1 kg/m3; in series [2] (x2 = 0.7406), 790 ± 1 kg/m3; in series [2] (x2 = 0.8497), 783.6 ± 1 kg/m3; in series [2] (x2 = 0.9403), 777.8 ± 1 kg/m3.

Consider `CCCCCCO` [hexan-1-ol] + C1CCCCC1, for which the mass density in series [2] (x2 = 0) amounted to 815.1 ± 1 kg/m3; in series [2] (x2 = 0.0811) it was 811.6 ± 1 kg/m3; in series [2] (x2 = 0.1597), 808.2 ± 1 kg/m3; in series [2] (x2 = 0.2415) it was 804.6 ± 1 kg/m3; in series [2] (x2 = 0.3498), 799.8 ± 1 kg/m3; in series [2] (x2 = 0.4412) it was 795.8 ± 1 kg/m3. Further, the mass density was determined as 790.7 ± 1 kg/m3 in series [2] (x2 = 0.5588); 786.8 ± 1 kg/m3 in series [2] (x2 = 0.65); 783.2 ± 1 kg/m3 in series [2] (x2 = 0.7404); 778.8 ± 1 kg/m3 in series [2] (x2 = 0.8499); 775.6 ± 1 kg/m3 in series [2] (x2 = 0.9398).

Regarding `C1CCCCC1` [cyclohexane] + CCCCCCO, in series [2] (x1 = 1), the mass density is 773.6 ± 1 kg/m3.

For `C1CCCCC1` [cyclohexane] + CCCCCCCO, the mass density in series [2] (x1 = 1) is reported as 773.6 ± 1 kg/m3.

For the compound `C1CCCCC1` [cyclohexane] + CCCCCCCCCO, the mass density in series [2] (x1 = 1) is 773.6 ± 1 kg/m3.

Turning to `CCCCCCO` [hexan-1-ol], in series [1], the mass density turned out to be 815.1 ± 1 kg/m3.

As to `CCCCCCCCO` [octan-1-ol] + C1CCCCC1, the mass density is 821.4 ± 1 kg/m3 in series [2] (x2 = 0); 818.3 ± 1 kg/m3 in series [2] (x2 = 0.0815); 815.1 ± 1 kg/m3 in series [2] (x2 = 0.1602); 811.7 ± 1 kg/m3 in series [2] (x2 = 0.2408); 806.9 ± 1 kg/m3 in series [2] (x2 = 0.3494); 802.7 ± 1 kg/m3 in series [2] (x2 = 0.4398). In addition, the mass density in series [2] (x2 = 0.5605) turned out to be 796.8 ± 1 kg/m3; in series [2] (x2 = 0.6496), 792.4 ± 1 kg/m3; in series [2] (x2 = 0.7404), 787.8 ± 1 kg/m3; in series [2] (x2 = 0.8495), 782 ± 1 kg/m3; in series [2] (x2 = 0.94) it was 777 ± 1 kg/m3.

Take `CCCCCO` [pentan-1-ol] + C1CCCCC1: the mass density in series [2] (x2 = 0) worked out at 810.8 ± 1 kg/m3; in series [2] (x2 = 0.081), 807.1 ± 1 kg/m3; in series [2] (x2 = 0.1607), 803.6 ± 1 kg/m3; in series [2] (x2 = 0.2403), 800.1 ± 1 kg/m3; in series [2] (x2 = 0.3487) it was 795.4 ± 1 kg/m3; in series [2] (x2 = 0.4396), 791.7 ± 1 kg/m3. Moreover, the mass density in series [2] (x2 = 0.5597) came out at 787 ± 1 kg/m3; in series [2] (x2 = 0.6498), 783.7 ± 1 kg/m3; in series [2] (x2 = 0.7408) it was 780.6 ± 1 kg/m3; in series [2] (x2 = 0.8499), 777.1 ± 1 kg/m3; in series [2] (x2 = 0.9406) it was 774.8 ± 1 kg/m3.

Regarding `CCCCCCCCCO` [nonan-1-ol], in series [1], the mass density was 824 ± 1 kg/m3.

In the case of `C1CCCCC1` [cyclohexane] + CCCCCCCCO, in series [2] (x1 = 1), the mass density was 773.6 ± 1 kg/m3.

`CCCCCCCO` [heptan-1-ol] + C1CCCCC1: the mass density in series [2] (x2 = 0) worked out at 818.7 ± 1 kg/m3; in series [2] (x2 = 0.0805), 815.5 ± 1 kg/m3; in series [2] (x2 = 0.1601), 812.1 ± 1 kg/m3; in series [2] (x2 = 0.2392), 808.7 ± 1 kg/m3; in series [2] (x2 = 0.3503), 803.7 ± 1 kg/m3; in series [2] (x2 = 0.4391), 799.7 ± 1 kg/m3. For the same compound, the mass density is recorded as 794 ± 1 kg/m3 in series [2] (x2 = 0.5604); 789.8 ± 1 kg/m3 in series [2] (x2 = 0.6502); 785.7 ± 1 kg/m3 in series [2] (x2 = 0.7396); 780.5 ± 1 kg/m3 in series [2] (x2 = 0.8497); 776.4 ± 1 kg/m3 in series [2] (x2 = 0.94).

On to `C1CCCCC1` [cyclohexane] + CCCCCCCCCCO, for which the mass density in series [2] (x1 = 1) worked out at 773.6 ± 1 kg/m3.

The values are drawn from the NIST ThermoML archive (doi:10.1016/j.fluid.2019.02.006).
